Reference: article PMC3642162 (FEBS Open Bio, 2012)
pEC50: −log10 of the molar value.

Key:
human TRα-1 and TRβ-1 = experiment: TR biosensors; format: cell-based; conditions: both biosensor strains
TRα = conditions: transcriptional activation assay; cited from earlier work
human TRα-1 = target: T1, human TRα-1 (Homo sapiens, UniProt P10827); format: cell-based
T1 sequence (P10827 149-407 isoform P10827-2): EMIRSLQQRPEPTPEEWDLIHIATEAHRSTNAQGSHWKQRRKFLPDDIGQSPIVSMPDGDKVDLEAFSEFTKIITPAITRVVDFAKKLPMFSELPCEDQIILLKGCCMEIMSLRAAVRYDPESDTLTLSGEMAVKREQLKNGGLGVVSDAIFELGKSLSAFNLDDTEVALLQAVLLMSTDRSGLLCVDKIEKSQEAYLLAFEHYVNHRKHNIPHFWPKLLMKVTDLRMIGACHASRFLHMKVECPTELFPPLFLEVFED

TRα and TRβ = conditions: cited from earlier work
TRβ = conditions: cited from earlier work
human ER β = human ER β biosensor, relative to 100% for 17-β-estradiol; cited from earlier work
porcine ER β = porcine ER β biosensor; cited from earlier work

SMILES	TR biosensors, qualitative activity (human TRα-1 and TRβ-1)	Other methods, reported activity (TRα and TRβ)	further results
Cc1cc(OCC(=O)O)cc(C)c1Cc1ccc(O)c(C(C)C)c1 [GC-1, 3,5-dimethyl-4-(4′-hydroxy-3′-isopropylbenzyl)-phenoxy acetic acid]	Agonist, TRβ selective	Agonist, TRβ selective	pEC50 (TRα): […]; EC50T3/EC50Ligand·100% (human TRα-1): 89.66%; Detection limit (lowest concentration giving unambiguous growth signal) (human TRα-1; TRα biosensor, visual inspection of dose-response curves): […]; Z′ (human TRα-1; pMIT::TRα-1, Z′ factor, highest vs lowest ligand concentration): 0.79
CC(C)c1cc(Oc2c(Cl)cc(CC(=O)O)cc2Cl)ccc1O [KB-141, 3,5-dichloro-4-(4-hydroxy-3-isopropylphenoxy) phenylacetic acid]	Agonist, TRβ selective	Agonist, TRβ selective	–
N[C@@H](Cc1cc(I)c(Oc2ccc(O)c(I)c2)c(I)c1)C(=O)[O-].O.[Na+] [T3, 3,3′,5-triiodo-L-thyronine sodium salt hydrate]	Agonist	Agonist	–
O=C(O)Cc1cc(I)c(Oc2ccc(O)c(I)c2)c(I)c1 [Triac, 3,3′,5-triiodothyroacetic acid]	Agonist, TRβ selective	Agonist, TRβ selective	Potency higher than T3 (TRα and TRβ; binding to TRβ): 6 fold; Affinity higher than T3 (TRβ): approximately 3 fold
CC(C)(c1ccc(O)cc1)c1ccc(O)cc1 [bisphenol A]	–	–	Relative binding affinity (RBA=EC50Estradiol/EC50Ligand×100 %) (human ER β): 1.15%; Relative binding affinity (RBA=EC50Estradiol/EC50Ligand×100 %) (porcine ER β): 0.13%
